Results: US12275711B2, “Compounds having excited state intramolecular proton transfer (ESIPT) character for use in treating and/or preventing sunburn and/or preventing U.V. damage” (UNIVERSITY OF THE WITWATERSRAND, JOHANNESBURG, priority 2019, dated 2025)
Like-named read-outs stand apart in the source and are kept apart here.

Columns and labels:
[1] = in L mol-1 cm-1, cited from earlier work
[2] = UV absorbance, molar absorptivity coefficients (ε) of the synthesized compounds; format: physicochemical
Protocol: The synthesized compounds 4c, 5, 6, 9, 10, 13a, 13b, 14, 20, 21, and 23, were analysed for their UV absorbances and their molar absorptivity coefficients (e) were determined.

**Q.** For `CCCCC(CC)COC(=O)C=Cc1ccc(OC)cc1` (centres unmarked) [2-ethylhexyl 4-methoxycinnamate], which “experimental molar absorption coefficient” value ([1]; at 356 nm) is on record?
**A.** 39,470

**Q.** For `CCCCCCCCCCCCCCCc1cccc(O)c1C(=O)c1ccccc1O` [Compound 4c, [2-(Hydroxy)-6-pentadecylphenyl](2-hydroxyphenyl)methanone], which “experimental ε value (molar absorptivity coefficient)” value (“experimental ε value” for short) ([2]; at 261 nm) is on record?
**A.** 36,366 L mol^−1 cm^−1

**Q.** And the “experimental ε value” value ([2]; at 335 nm)?
**A.** 10,538 L mol^−1 cm^−1

**Q.** For `CCCCCCCCCCCCCCCc1cccc(O)c1C(=O)c1cc(OC)ccc1O` [Compound 5, (2-Hydroxy-5-methoxyphenyl)(2-hydroxy-6-pentadecylphenyl)methanone], which “ε value (molar absorptivity coefficient)” value ([2]; at 265 nm) is on record?
**A.** 18,439 L mol^−1 cm^−1

**Q.** What about the “ε value (molar absorptivity coefficient)” value ([2]; at 374 nm) of the same molecule?
**A.** 8,785 L mol^−1 cm^−1

**Q.** With `CCCCCCCCCCCCCCCc1cccc(O)c1C(=O)c1cc(OC)c(OC)cc1O` [Compound 6, (2-Pentadecyl-6-hydroxyphenyl)(2-hydroxy-4,5-dimethoxyphenyl)methanone] as the molecule, how does the “ε value (molar absorptivity coefficient)” value ([2]; at 287 nm) read?
**A.** 34,096 L mol^−1 cm^−1

**Q.** And the “ε value (molar absorptivity coefficient)” value ([2]; at 358 nm)?
**A.** 25,014 L mol^−1 cm^−1

**Q.** With `CCCCCCCCCCCCCCCc1ccc(C(=O)c2ccccc2)c(O)c1` [Compound 9, (2-Hydroxy-4-pentadecylphenyl)(phenyl)methanone] as the molecule, how does the “experimental ε value” value ([2]; at 279 nm) read?
**A.** 47,909 L mol^−1 cm^−1

**Q.** For `CCCCCCCCCCCCCCCc1ccc(C(=O)c2ccccc2O)c(O)c1` [Compound 10, (2-hydroxy-4-pentadecylphenyl)(2-hydroxyphenyl)methanone], which experimental ε value (molar absorptivity coefficient) ([2]; at 282 nm) is on record?
**A.** 31700 L/mol/cm

**Q.** With `CCCCCCCCCCCCCCCc1ccc(C(=O)/C=C/c2ccccc2)c(O)c1` [Compound 13a, (E)-1-(2-hydroxy-4-pentadecylphenyl)-3-phenylprop-2-en-1-one] as the molecule, how does the “experimental ε value” value ([2]; at 314 nm) read?
**A.** 20,403 L mol^−1 cm^−1

**Q.** For `CCCCCCCCCCCCCCCc1ccc2c(=O)c(O)c(-c3ccccc3)oc2c1` [Compound 13b, 3-Hydroxy-7-pentadecyl-2-phenyl-4H-chromen-4-one], which experimental ε value (molar absorptivity coefficient) ([2]; at 314 nm) is on record?
**A.** 39900 L/mol/cm

**Q.** And the experimental ε value (molar absorptivity coefficient) ([2]; at 345 nm)?
**A.** 45000 L/mol/cm

**Q.** With `CCCCCCCCCCCCCCCc1cc(O)c2c(=O)c3c(O)cccc3oc2c1` [Compound 14, 1,8-Dihydroxy-3-pentadecyl-9H-xanthen-9-one] as the molecule, how does the ε value (molar absorptivity coefficient) ([2]; at 254 nm) read?
**A.** 23800 L/mol/cm

**Q.** Which “ε value (molar absorptivity coefficient)” value ([2]; at 278 nm) does the source give for `CCCCCCCCCCCCCCCc1ccc(-c2nc(-c3ccccc3)nc(-c3ccccc3)n2)c(O)c1` [Compound 20, 2-(4,6-Diphenyl-1,3,5-triazin-2-yl)-5-pentadecylphenol] here?
**A.** 29,252 L mol^−1 cm^−1

**Q.** Which “experimental ε value” value ([2]; at 300 nm) does the source give for `CCCCCCCCCCCCCCCc1ccc(-c2nc(-c3ccc(CCCCCCCCCCCCCCC)cc3O)nc(-c3ccc(CCCCCCCCCCCCCCC)cc3O)n2)c(O)c1` [Compound 21, 6,6′,6″-(1,3,5-Triazine-2,4,6-triyl)tris(3-pentadecylphenol)] here?
**A.** 21,452 L mol^−1 cm^−1

**Q.** And the experimental ε value (molar absorptivity coefficient) ([2]; at 364 nm)?
**A.** 12500 L/mol/cm

**Q.** Which “experimental ε value” value ([2]; at 293 nm) does the source give for `CCCCCCCCCCCCCCCc1ccc(-c2nnc(-c3ccc(OC)c(OC)c3)o2)c(O)c1` [Compound 23, 2-[5-(3,4-Dimethoxyphenyl)-1,3,4-oxadiazol-2-yl]-5-pentadecylphenol] here?
**A.** 3,373 L mol^−1 cm^−1

**Q.** What about the “experimental ε value” value ([2]; at 326 nm) of the same molecule?
**A.** 6,367 L mol^−1 cm^−1

**Q.** For `COc1ccc(C(=O)CC(=O)c2ccc(C(C)(C)C)cc2)cc1` [avobenzone], which “experimental molar absorption coefficient” value ([1]; at 310 nm) is on record?
**A.** 31,670

**Q.** For `COc1ccc(C(=O)c2ccccc2)c(O)c1` [oxybenzone], which “experimental molar absorption coefficient” value ([1]; at 287 nm) is on record?
**A.** 15,150
